Earlier results on 1 compound are cited in patent US20060173179A1, “Azabenzoxazoles for the treatment of CNS disorders” (Pfizer Inc, priority 2004, published 2006).

What is called half-life is the time in which the quantity being followed falls by half.

Molecules are shown by their SMILES.

Assay in series [1]: not given
This is another data set of the same source.

With `O=C1Cc2cc(CCN3CCN(c4nsc5ccccc45)CC3)c(Cl)cc2N1` [Ziprasidone, 5-[2-[4-(1,2-benzisothiazol-3-yl)piperazin-1-yl]ethyl]-6-chloroindolin-2-one], the half-life (in vivo) was 6 to 7 h. The Oral bioavailability result (taken with food) is recorded as “approximately 60%”. Besides, in series [1], the protein binding result was “extensive”.
